From US20260256747A1, “ARYL-TRIAZOLYL AND RELATED GPR84 ANTAGONISTS AND USES THEREOF” (Liminal BioSciences Limited, priority 2022, published 2026)

Target: T1, human GPR84 receptor (Homo sapiens, UniProt Q9NQS5)
T1 construct: host or cells: HEK293 cells, transient transfection
Assay: Gαi biosensor BRET assay in HEK293 cells transfected with GPR84, stimulated with the GPR84 agonist ZQ-16
Format: cell-based
Settings: 200 nmol/L ZQ-16; for inhibition at 10 µM / inhibition at 2 µM: HEK293, single concentration; for inhibition at 10 µM: concentration class F = 10 μM; for inhibition at 2 µM: concentration class A = 2 μM
Description: Background—The following assays can be used for determination of GPR84 activation in living HEK293 cells. The Gαi BRET biosensor (Gagnon et al., 2018; Gales et al., 2006. Nat Struct Mol Biol. 13, 778-86; Saulieres et al., 2012. Nat Chem Biol. 8, 622-30) allows to directly monitor GPR84-mediated activation of Gαi. The Gαi biosensor consists of a Rluc8-tagged Gαi2 subunit, a GFP10-tagged Gγ2 subunit, and an untagged GB1. Agonist stimulation and GPR84 activation triggers a physical separation between the RLuc8-Gαi donor and the GFP10-Gγ2 acceptor, resulting in a decrease in BRET signal whose amplitude is correlated to ligand efficacy (Gales et al., 2006). Moreover, signaling functions of GPCRs are tightly regulated by endocytosis, the targeting of receptors to endosomes and their sorting to lysosomes or recycling to the plasma membrane. The early endosomes (EEs) trafficking assay (Namkung et al., 2016. Nat Commun. 7, 12178) uses Rluc8-tagged GPR84 and Renilla GFP (rGFP) attached to the FYVE domain from human endofin/zinc finger FYVE domain-containing protein 16, which binds phosphatidylinositol 3-phosphate in EEs. Agonist stimulation of GPR84-Rluc8 leads to trafficking of the receptor to EEs, and ensuing increase of the donor concentration relative to the rGFP-FYVE acceptor anchored in the same cellular compartment, and thus results in an increase in BRET signal.
Plasmids—The cDNA clones for human GPR84 receptor, human Gαi2, Gβ1, and Gγ2 were obtained from the cDNA Resource Center (www.cdna.org). GFP10 (F64L, S147P, S202F and H231L variant of Aequorea victoria Green Fluorescent Protein) gBlocks gene fragments (Integrated DNA Technologies, IA) and linker were inserted in frame at the N-terminus of human Gγ2. Rluc8 (A^55T, Cl24A, S130A, K136R, A^143M, M185V, M253L, and S287L variant of the Renilla reniformis luciferase) gBlocks gene fragment was inserted with linkers in frame in between residues 91 and 92 of Gαi2 or at the C-terminus of GPR84. The FYVE domain from human endofin (residues Q739 to K806) attached in frame at the C terminus of a humanized Renilla GFP (rGFP), were synthesized as gBlocks gene fragments.
Bioluminescence Resonance Energy Transfer (BRET) Measurement-HEK293 cells were transfected with GPR84-Rluc8 and rGFP-FYVE for the EEs trafficking biosensor or with GPR84, Gαi2-Rluc8, GFP10-Gγ2, and Gβ1 for the Gαi biosensor. The following day, transiently transfected cells were seeded in 96-well white clear bottom microplates coated with poly-D-lysine and left in culture for 24 hours. Cells were washed once with Tyrode's buffer (140 mmol/L NaCl, 1 mmol/L CaCl2, 2.7 mmol/L KCl, 0.49 mmol/L MgCl2, 0.37 mmol/L NaH2PO4, 5.6 mmol/L glucose, 12 mmol/L NaHCO3, and 25 mmol/L HEPES, pH 7.5) before performing assays in Tyrode's buffer. Test compounds were incubated with cells for 5 (Gai) or 15 (EEs) minutes at 37° C. before addition of 200 nmol/L of the GPR84 agonist ZQ-16 (2-(Hexylthio)-6-hydroxy-4 (3H)-pyrimidinone) for 5 minutes at room temperature (Gai) or 30 minutes at 37° C. (EEs). The Rluc8 substrate coelenterazine 400A (Prolume, Lakeside, AZ) was added at a final concentration of 5 μmol/L and BRET readings were collected using an Infinite M1000 microplate reader (Tecan, Morrisville, NC). BRET2 readings between Rluc8 and GFP10 or rGFP were collected by sequential integration of the signals detected in the 370 to 450 nm (Rluc8) and 510 to 540 nm (GFP10, rGFP) windows. The BRET signal was calculated as the ratio of light emitted by acceptor (GFP10, rGFP) over the light emitted by donor (Rluc8). The values were corrected to net BRET by subtracting the background BRET signal obtained in cells transfected with Rluc8 constructs alone. Ligand-promoted net BRET values were calculated by subtracting vehicle-induced net BRET from ligand-induced net BRET.

T1 sequence (Q9NQS5 whole entry): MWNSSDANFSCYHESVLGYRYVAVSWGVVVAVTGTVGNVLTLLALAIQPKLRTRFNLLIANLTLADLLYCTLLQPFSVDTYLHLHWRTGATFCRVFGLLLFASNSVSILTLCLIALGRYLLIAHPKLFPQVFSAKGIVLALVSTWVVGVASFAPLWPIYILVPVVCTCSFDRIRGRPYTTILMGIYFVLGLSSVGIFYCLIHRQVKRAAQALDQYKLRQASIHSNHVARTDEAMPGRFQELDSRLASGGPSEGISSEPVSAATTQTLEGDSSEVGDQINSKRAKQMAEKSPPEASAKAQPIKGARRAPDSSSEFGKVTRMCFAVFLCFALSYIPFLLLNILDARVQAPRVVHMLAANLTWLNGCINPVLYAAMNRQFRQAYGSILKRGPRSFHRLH

## CN(C)c1cc(N2CC3(COC3)C2)ccc1-c1cn(CC2OCC(C)(C)CO2)cn1 [Compound I-45, 2-(1-((5,5-dimethyl-1,3-dioxan-2-yl)methyl)-1H-imidazol-4-yl)-N,N-dimethyl-5-(2-oxa-6-azaspiro[3.3]heptan-6-yl)aniline]
  IC50: 1000 to 3000 nM
  inhibition at 10 µM: > 75%

## COc1ccc(C#Cc2cnn(CC3OCC(C)(C)CO3)n2)cc1 [Compound I-46]
  inhibition at 10 µM: ≤ 25%

## CN(C)C(=O)Cn1cnc(-c2ccc(N3CC(C)(CO)C3)cc2N(C)C)c1 [Compound I-47]
  inhibition at 10 µM: 50 to 75%

## Cc1cc(N2CCN(C(C)c3ccccn3)CC2)ccc1-c1cn(CC2OCC3(CC3)CO2)cn1 (centres unmarked) [Compound I-48]
  IC50: ≤ 300 nM
  inhibition at 10 µM: > 75%

## CC1(C)COC(Cn2cc(-c3ncc(C(F)(F)F)cc3OC3CC3)nn2)OC1 [Compound I-49]
  inhibition at 2 µM: 50 to 75%

## [2H]C([2H])([2H])N(c1cc(N2CC(C)(CO)C2)ccc1-c1cn(CC2OCC(C)(C)CO2)nn1)C([2H])([2H])[2H] [Compound I-50]
  IC50: 300 to 1000 nM

## CN(C)C(=O)Cn1cnc(-c2ncc(C#CC3CC3)cc2OC2CC2)c1 [Compound I-51]
  inhibition at 10 µM: > 75%

## CN(C)c1cc(N2CC(C)(CO)C2)c(F)cc1-c1cn(CC2OCC3(CC3)CO2)cn1 [Compound I-52]
  IC50: ≤ 300 nM
  inhibition at 10 µM: > 75%

## C(#CC1CC1)c1cnc(-c2cncn2C[C@H]2CCCCO2)c(OC2CC2)c1 [Compound I-53]
  inhibition at 10 µM: ≤ 25%

## C(#CC1CC1)c1cnc(-c2cn(C[C@H]3CCCCO3)cn2)c(OC2CC2)c1 [Compound I-54]
  IC50: ≤ 300 nM
  inhibition at 2 µM: > 75%

## [2H]C([2H])([2H])N(c1cc(N2CC(C)(CO)C2)ccc1-c1cn(CC2OCC3(CC3)CO2)nn1)C([2H])([2H])[2H] [Compound I-55]
  IC50: 300 to 1000 nM
  inhibition at 10 µM: > 75%

## CCc1cc(N2CCN(Cc3ccccn3)CC2)ccc1-c1cn(CC2OCC3(CC3)CO2)cn1 [Compound I-56]
  IC50: ≤ 300 nM
  inhibition at 10 µM: > 75%

## O=C(NC1CC1)c1cnc(-c2cn(CC3OCC4(CC4)CO3)nn2)c(OC2CC2)c1 [Compound I-57]
  inhibition at 10 µM: 25 to 50%

## CC1(C)COC(Cn2cc(Cc3cc(C#CC4CC4)ccc3C(F)(F)F)nn2)OC1 [Compound I-58]
  inhibition at 10 µM: > 75%

## CN(C(=O)c1cnc(-c2cn(CC3OCC4(CC4)CO3)nn2)c(OC2CC2)c1)C1CC1 [Compound I-59, 6-(1-((5,7-dioxaspiro[2.5]octan-6-yl)methyl)-1H-1,2,3-triazol-4-yl)-5-cyclopropoxy-N-cyclopropyl-N-methylnicotinamide]
  inhibition at 10 µM: ≤ 25%

## CN(C)C(=O)c1cnc(-c2cn(CC3OCC4(CC4)CO3)nn2)c(OC2CC2)c1 [Compound I-61]
  inhibition at 10 µM: 25 to 50%

## Cc1cc(N2CCN(Cc3ccccn3)CC2)ccc1-c1cn(CC(=O)N(C)C)cn1 [Compound I-62]
  inhibition at 10 µM: 25 to 50%

## O=C(O)Cn1cc(-c2ncc(C#CC3CC3)cc2OC2CC2)nn1 [Compound I-63]
  inhibition at 10 µM: ≤ 25%

## O=C(Cn1cc(-c2ncc(C#CC3CC3)cc2OC2CC2)nn1)N1CCCC1 [Compound I-64]
  IC50: 300 to 1000 nM
  inhibition at 10 µM: > 75%

## O=C1OC(c2ccc(C#CC3CC3)cc2)CN1CC1CCCCO1 (centres unmarked) [Compound I-65]
  inhibition at 10 µM: 25 to 50%

## CNC(=O)c1cnc(-c2cn(CC3OCC4(CC4)CO3)nn2)c(OC2CC2)c1 [Compound I-66]
  inhibition at 10 µM: 50 to 75%

## CNC(=O)Cn1cc(-c2ncc(C#CC3CC3)cc2OC2CC2)nn1 [Compound I-67]
  inhibition at 10 µM: 25 to 50%

## C(#CC1CC1)c1cnc(-c2cn(Cc3cc4ccccc4[nH]3)nn2)c(OC2CC2)c1 [Compound I-70]
  inhibition at 10 µM: ≤ 25%

## CN(C)C(=O)COc1cnc(-c2cn(CC(=O)N(C)C)nn2)c(OC2CC2)c1 [Compound I-71]
  inhibition at 10 µM: ≤ 25%

## CN(C)C(=O)COc1cnc(-c2cn(CC3OCC4(CC4)CO3)nn2)c(OC2CC2)c1 [Compound I-72]
  inhibition at 10 µM: 25 to 50%

## CN(C)C(=O)CNc1cnc(-c2cn(CC3OCC4(CC4)CO3)nn2)c(OC2CC2)c1 [Compound I-73]
  inhibition at 10 µM: > 75%

## Cc1ccc(C#CC2CC2)cc1C(F)(F)c1cn(CC2CCCCO2)nn1 (centres unmarked) [Compound I-99]
  inhibition at 2 µM: 50 to 75%

## Cc1cc(C#CCN2CC(C)(C)C2)cnc1-c1nnn(CC2OCC(C)(C)CO2)n1 [Compound I-111]
  IC50: 1000 to 3000 nM
  inhibition at 10 µM: > 75%

## CC1(C)CN(CC#Cc2cnc(-c3cn(CC4OCC5(CC5)CO4)nn3)c(CC3CC3)c2)C1 [Compound I-118]
  IC50: ≤ 300 nM
  inhibition at 2 µM: > 75%

## CC1(C)COC(Cn2cc(Cc3cc(C#CC4CC4)ccc3Cl)nn2)OC1 [Compound I-136]
  IC50: 1000 to 3000 nM
  inhibition at 10 µM: > 75%

## CN(C)c1cc(N2CCN(Cc3ccccn3)CC2)ccc1-c1cn(CC2OCC(C)(C)CO2)cn1 [Compound I-137]
  inhibition at 10 µM: ≤ 25%

## Cc1cc(N2CCN(Cc3ccccn3)CC2)ccc1-c1cn(CC2OCC3(CC3)CO2)cn1 [Compound I-139]
  inhibition at 10 µM: > 75%

## CC1(C)COC(Cn2cc(-c3ncc(C#CCN4CC(C)(CO)C4)cc3OC3CC3)nn2)OC1 [Compound I-143]
  inhibition at 2 µM: > 75%

## CC1(CO)CN(c2ccc(-c3cn(CC4OCC5(CCC5)O4)nn3)c(CC(F)(F)F)c2)C1 (centres unmarked) [Compound I-144]
  inhibition at 10 µM: > 75%

## CCN(CC)c1cc(N2CC(C)(CO)C2)ccc1-c1cn(CC2OCC3(CC3)CO2)nn1 [Compound I-147]
  inhibition at 10 µM: > 75%

## CN(c1ccc(C#CC2CC2)cc1)c1cn(CC2OCC(C)(C)CO2)nn1 [Compound I-149]
  inhibition at 10 µM: ≤ 25%

## CN(c1cn(CC2OCC(C)(C)CO2)nn1)c1cc(C#N)ccc1Cl [Compound I-159]
  inhibition at 10 µM: 25 to 50%

## CN(c1cccc(C#N)c1)c1cn(CC2OCC(C)(C)CO2)nn1 [Compound I-160]
  inhibition at 10 µM: 25 to 50%

## NC(=O)c1cnc(-c2cn(CC3OCC4(CC4)CO3)nn2)c(OC2CC2)c1 [Compound I-204]
  inhibition at 10 µM: 50 to 75%

## c1nc(-c2cn(CC3OCC4(CC4)CO3)nn2)c(OC2CC2)cc1-c1nnn[nH]1 [Compound I-205]
  IC50: ≤ 300 nM
  inhibition at 2 µM: > 75%

## [2H]C([2H])([2H])C1(C([2H])([2H])[2H])COC(Cn2cc(-c3ccc(N4CC(C)(CO)C4)cc3N(C)C)nn2)OC1 [Compound I-206]
  inhibition at 10 µM: ≤ 25%

## c1ccc(CN2CCN(c3cnc(-c4cn(CC5OCC6(CC6)CO5)cn4)c(OC4CC4)c3)CC2)nc1 [Compound I-211]
  inhibition at 10 µM: 25 to 50%

## Clc1cc(N2CCN(Cc3ccccn3)CC2)cnc1-c1cn(CC2OCC3(CC3)CO2)cn1 [Compound I-212]
  inhibition at 10 µM: 50 to 75%

## CN(C)C(=O)CCn1cc(-c2ncc(C#CC3CC3)cc2OC2CC2)nn1 [Compound I-213]
  inhibition at 10 µM: 25 to 50%

## Clc1cc(N2CCN(Cc3ccccn3)CC2)cnc1-c1cncn1CC1OCC2(CC2)CO1 [Compound I-214]
  inhibition at 10 µM: 50 to 75%

## Clc1cc(N2CCN(Cc3ccccn3)CC2)cnc1-c1c[nH]cn1 [Compound I-215]
  inhibition at 10 µM: ≤ 25%

## CN(C)C(=O)Cn1cc(-c2ncc(C#CC3CC3)cc2OC2CC2)cn1 [Compound I-216]
  inhibition at 10 µM: ≤ 25%

## O=C(Cn1cc(-c2ncc(C#CC3CC3)cc2OC2CC2)cn1)N1CCCC1 [Compound I-217]
  inhibition at 10 µM: 25 to 50%
